Tests used:
Conditions in all cases: incubation time: 72 h
CAL-120 [1] = experiment: normalised response (% of control), CellTox Green; higher = less cell death (100 = DMSO, 0 = benzethonium chloride kill control)
In short: (§1)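 After 72 h with compound in 384-well plates, breast cancer cell lines seeded as 20 µl suspension were read for CellTox Green fluorescence at 485/520 nm. CellTiter-Glo luminescence was then read after 10 min at room temperature. Compound was present at 5 concentrations in 10-fold steps over a 10,000-fold range set per compound, and plates were normalised to 0.1 % DMSO (100) and a positive kill control (0). Values are normalised signals, each at a single concentration.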

BT-549 [2] = experiment: as above
In short: as §1

MDA-MB-436 [3] = experiment: as above
In short: as §1

MFM-223 [4] = experiment: as above
In short: as §1

Hs578T [5] = experiment: as above
In short: as §1

DU-4475 [6] = experiment: as above
In short: as §1

MDA-MB-468 [7] = experiment: as above
In short: as §1

CAL-51 [8] = experiment: as above
In short: as §1

MDA-MB-231 [9] = experiment: as above
In short: as §1

HDQ-P1 [10] = experiment: as above
In short: as §1

BT-474 [11] = experiment: as above
In short: as §1

HCC1143 [12] = experiment: as above
In short: as §1

CAL-148 [13] = experiment: as above
In short: as §1

HCC1937 [14] = experiment: as above
In short: as §1

HCC1599 [15] = experiment: as above
In short: as §1

MDA-MB-453 [16] = experiment: as above
In short: as §1

MCF-10A [17] = experiment: as above
In short: as §1

CAL-85-1 [18] = experiment: as above
In short: as §1

CAL-120 [19] = experiment: normalised response (% of control), CellTiter-Glo; higher = more viable cells (100 = DMSO, 0 = benzethonium chloride kill control)
In short: as §1

BT-549 [20] = experiment: as above
In short: as §1

SK-BR-3 = experiment: as above
In short: as §1

MDA-MB-436 [21] = experiment: as above
In short: as §1

MFM-223 [22] = experiment: as above
In short: as §1

Hs578T [23] = experiment: as above
In short: as §1

DU-4475 [24] = experiment: as above
In short: as §1

MDA-MB-468 [25] = experiment: as above
In short: as §1

CAL-51 [26] = experiment: as above
In short: as §1

MDA-MB-231 [27] = experiment: as above
In short: as §1

HDQ-P1 [28] = experiment: as above
In short: as §1

BT-474 [29] = experiment: as above
In short: as §1

HCC1143 [30] = experiment: as above
In short: as §1

CAL-148 [31] = experiment: as above
In short: as §1

HCC1937 [32] = experiment: as above
In short: as §1

HCC1599 [33] = experiment: as above
In short: as §1

MDA-MB-453 [34] = experiment: as above
In short: as §1

MCF-10A [35] = experiment: as above
In short: as §1

CAL-85-1 [36] = experiment: as above
In short: as §1

| Compound | normalised response (CAL-120 [1]) [%] | normalised response (BT-549 [2]) [%] | normalised response (MDA-MB-436 [3]) [%] | normalised response (MFM-223 [4]) [%] | normalised response (Hs578T [5]) [%] | normalised response (DU-4475 [6]) [%] | normalised response (MDA-MB-468 [7]) [%] | normalised response (CAL-51 [8]) [%] | normalised response (MDA-MB-231 [9]) [%] | normalised response (HDQ-P1 [10]) [%] | normalised response (BT-474 [11]) [%] | normalised response (HCC1143 [12]) [%] | normalised response (CAL-148 [13]) [%] | normalised response (HCC1937 [14]) [%] | normalised response (HCC1599 [15]) [%] | normalised response (MDA-MB-453 [16]) [%] | normalised response (MCF-10A [17]) [%] | normalised response (CAL-85-1 [18]) [%] | normalised response (CAL-120 [19]) [%] | normalised response (BT-549 [20]) [%] | normalised response (SK-BR-3) [%] | normalised response (MDA-MB-436 [21]) [%] | normalised response (MFM-223 [22]) [%] | normalised response (Hs578T [23]) [%] | normalised response (DU-4475 [24]) [%] | normalised response (MDA-MB-468 [25]) [%] | normalised response (CAL-51 [26]) [%] | normalised response (MDA-MB-231 [27]) [%] | normalised response (HDQ-P1 [28]) [%] | normalised response (BT-474 [29]) [%] | normalised response (HCC1143 [30]) [%] | normalised response (CAL-148 [31]) [%] | normalised response (HCC1937 [32]) [%] | normalised response (HCC1599 [33]) [%] | normalised response (MDA-MB-453 [34]) [%] | normalised response (MCF-10A [35]) [%] | normalised response (CAL-85-1 [36]) [%] |
| --- | --- | --- | --- | --- | --- | --- | --- | --- | --- | --- | --- | --- | --- | --- | --- | --- | --- | --- | --- | --- | --- | --- | --- | --- | --- | --- | --- | --- | --- | --- | --- | --- | --- | --- | --- | --- | --- |
| CC(C)NC[C@@H](C(=O)N1CCN(c2ncnc3c2[C@H](C)C[C@H]3O)CC1)c1ccc(Cl)cc1 [GDC-0068] (100 nM) | 104 | 98.9 | 85 | 102 | 97.8 | 102 | 125 | 106 | 97.8 | 87 | 96.9 | 93.9 | 82.4 | 104 | 94.8 | 107 | 106 | 108 | 104 | 94.2 | 95.1 | 97.3 | 68.4 | 102 | 98.8 | 84 | 80 | 104 | 89.2 | 102 | 100 | 62.8 | 90.9 | 93.9 | 84.2 | 111 | 98.3 |
| CCCc1cc(C)[nH]c(=O)c1CNC(=O)c1cc(-c2ccnc(N3CCN(C)CC3)c2)cc2c1cnn2C(C)C [GSK343] (100 nM) | 95.3 | 98.5 | 88.6 | 99.6 | 51 | 96 | 161 | 62.8 | 100 | 105 | 100 | 91.9 | 101 | 87.8 | 96.3 | 102 | 85.8 | 106 | 94.6 | 101 | 88.1 | 103 | 95.5 | 95.5 | 92.5 | 84.6 | 67.6 | 97.2 | 96.5 | 94.8 | 93.2 | 90.1 | 94.9 | 82.2 | 90 | 92.7 | 91.9 |
| NC(=O)NO [Hydroxyurea] (1000 nM) | 101 | 105 | 101 | 89.5 | 101 | 102 | 103 | 78.6 | 111 | 99.4 | 101 | 67.2 | 78.8 | 109 | 99.6 | 96.4 | 108 | 115 | 102 | 105 | 103 | 98.5 | 105 | 101 | 99.6 | 102 | 61.3 | 100 | 95.2 | 92.1 | 105 | 104 | 97.6 | 97.1 | 109 | 99.2 | 110 |
| COc1cc2c(cc1-c1c(C)noc1C)ncc1[nH]c(=O)n([C@H](C)c3ccccn3)c12 [I-BET151] (100 nM) | 97.4 | 93.2 | 64.7 | 103 | 108 | 103 | 54 | 112 | 78.7 | 89.7 | 101 | 91.9 | 102 | 102 | 99.1 | 98.3 | 89.9 | 107 | 99.9 | 98.8 | 105 | 96.4 | 103 | 102 | 94.8 | 98.9 | 104 | 99.6 | 96 | 89.6 | 117 | 110 | 98.4 | 100 | 85.7 | 93.8 | 104 |
| CC(C)n1nc(-c2ccc3oc(N)nc3c2)c2c(N)ncnc21 [INK128] (10 nM) | 100 | 83.9 | 94.7 | 99.9 | 108 | 96.8 | 104 | 99.6 | 99.5 | 78.1 | 76.1 | 60.6 | 96.6 | 91.2 | 95 | 99.3 | 108 | 99.9 | 82.4 | 74.7 | 55.6 | 79.1 | 70.6 | 85 | 86.8 | 81.2 | 76.8 | 81.8 | 75 | 78.9 | 85.8 | 81.7 | 82.9 | 100 | 73.8 | 89.1 | 81.4 |
| O=C(O)CC[C@H]1CC[C@@](c2cc(F)ccc2F)(S(=O)(=O)c2ccc(Cl)cc2)CC1 [MK-0752] (10 nM) | 107 | 92.4 | 99.9 | 85.8 | 56.9 | 108 | 108 | 103 | 122 | 105 | 104 | 120 | 101 | 125 | 122 | 107 | 109 | 102 | 106 | 93.8 | 105 | 99.7 | 106 | 106 | 102 | 96.1 | 101 | 109 | 99.3 | 105 | 105 | 108 | 98.8 | 91.8 | 114 | 105 | 97.2 |
| CO[C@H](C(=O)[C@@H](O)[C@@H](C)O)[C@@H]1Cc2cc3cc(O[C@H]4C[C@@H](O[C@@H]5C[C@@H](O)[C@H](O)[C@@H](C)O5)[C@H](O)[C@@H](C)O4)c(C)c(O)c3c(O)c2C(=O)[C@H]1O[C@H]1C[C@@H](O[C@@H]2C[C@@H](O)[C@@H](O[C@@H]3C[C@](C)(O)[C@H](O)[C@@H](C)O3)[C@@H](C)O2)[C@H](O)[C@@H](C)O1 [Plicamycin] (100 nM) | 102 | 98.7 | 96.8 | 100 | 86 | 102 | 131 | 85.5 | 109 | 94.3 | 99.4 | 101 | 107 | 119 | 106 | 105 | 93.4 | 99 | 103 | 103 | 102 | 103 | 103 | 104 | 105 | 105 | 66.4 | 104 | 99.5 | 100 | 104 | 112 | 98 | 99.4 | 114 | 108 | 100 |
| CC/C(=C(\c1ccccc1)c1ccc(OCCN(C)C)cc1)c1ccccc1 [Tamoxifen] (100 nM) | 103 | 99.3 | 74.1 | 103 | 97.7 | 105 | 71.4 | 115 | 91.3 | 87.8 | 100 | 113 | 106 | 91.9 | 103 | 100 | 106 | 105 | 110 | 99.2 | 99.4 | 99.1 | 103 | 105 | 105 | 98 | 91.5 | 107 | 105 | 97.9 | 108 | 110 | 100 | 101 | 102 | 107 | 99.9 |

— the supplement of paper PMC4862054
